# Results from PubChem BioAssay AID1134 (Emory University Molecular Libraries Screening Center, 2008).
# How the values were obtained:
# [1] = molecular target: Ubiquitin carboxyl-terminal hydrolase BAP1 (Homo sapiens) (UniProt Q92560); assay: BAP1 versus UCH-L1 deubiquitinase inhibition – biochemical, ubiquitin-rhodamine110-glycine substrate, selectivity assay, dose response (AID 1134); settings: recombinant BAP1, ubiquitin-rhodamine110 cleavage fluorescence kinetic
# [2] = as above; settings: recombinant BAP1, ubiquitin-rhodamine110 cleavage fluorescence kinetic; measured here: UCH-L1 counter-screen IC50
# Sequence of Ubiquitin carboxyl-terminal hydrolase BAP1 (Homo sapiens) (Q92560 whole entry, looked up): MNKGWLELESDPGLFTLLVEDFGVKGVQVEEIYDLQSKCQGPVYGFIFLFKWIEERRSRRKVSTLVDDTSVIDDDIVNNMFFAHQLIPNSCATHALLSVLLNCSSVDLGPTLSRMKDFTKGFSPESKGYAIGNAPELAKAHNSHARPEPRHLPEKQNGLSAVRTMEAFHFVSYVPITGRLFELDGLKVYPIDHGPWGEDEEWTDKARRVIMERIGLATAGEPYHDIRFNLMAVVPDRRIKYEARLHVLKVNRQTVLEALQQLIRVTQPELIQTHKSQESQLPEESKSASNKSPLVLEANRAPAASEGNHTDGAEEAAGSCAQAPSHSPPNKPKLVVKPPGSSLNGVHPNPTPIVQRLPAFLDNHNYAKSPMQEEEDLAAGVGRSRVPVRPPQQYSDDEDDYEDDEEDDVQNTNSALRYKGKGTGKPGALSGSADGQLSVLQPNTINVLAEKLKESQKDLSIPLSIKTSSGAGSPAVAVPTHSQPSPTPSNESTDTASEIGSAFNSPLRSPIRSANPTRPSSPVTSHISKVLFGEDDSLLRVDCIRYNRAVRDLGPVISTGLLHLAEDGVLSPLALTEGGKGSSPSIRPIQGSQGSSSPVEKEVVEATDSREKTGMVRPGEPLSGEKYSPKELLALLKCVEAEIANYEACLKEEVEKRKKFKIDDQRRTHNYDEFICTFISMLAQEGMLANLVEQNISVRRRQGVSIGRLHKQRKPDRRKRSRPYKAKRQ
IC50 [1] [µM],IC50 [2] [µM],Structure (SMILES)
31.1,–,Cc1sc(NC(=O)CSc2n[nH]c(-c3ccc(O)cc3)n2)c(C#N)c1C
6.22,–,Cc1sc(NC(=O)CSc2nnc(Cc3ccc(Cl)cc3)o2)c(C#N)c1-c1ccc(F)cc1
16.8,–,Cc1sc(NC(=O)CSc2nnc(N3CCOCC3)o2)c(C#N)c1-c1ccc(F)cc1
3.73,20.6,Cc1sc(NC(=O)CSc2nnc(-c3ccc(Cl)cc3)o2)c(C#N)c1-c1ccc(CC(C)C)cc1
4.82,–,Cc1sc(NC(=O)CSc2nccc(-c3ccc(Cl)cc3)n2)c(C#N)c1C
1.15,13.8,Cc1sc(NC(=O)CSc2nnc(-c3ccc(Cl)cc3)o2)c(C#N)c1-c1ccc(Cl)cc1Cl
3.59,23.6,COC(=O)c1c(NC(=O)CSc2nnc(-c3ccc(Cl)cc3)o2)sc(C)c1-c1ccc(F)cc1
15.3,–,Cc1sc(NC(=O)CSc2nnc(-c3ccc(O)cc3)o2)c(C#N)c1-c1ccc(F)cc1
4.77,–,Cc1sc(NC(=O)CSc2nnc(-c3ccc(O)cc3)o2)c(C#N)c1-c1ccc(CC(C)C)cc1
1.58,47.6,Cc1sc(NC(=O)CSc2nccc(-c3ccc(Cl)cc3)n2)c(C#N)c1-c1ccc(F)cc1
14.4,–,O=C(CSc1nnc(-c2ccc(O)cc2)o1)Nc1cc(-c2ccc(F)cc2)[nH]n1
17.4,–,Cc1ccccc1Nc1nnc(SCC(=O)NCc2ccco2)s1
2.76,> 100,Cc1sc(NC(=O)CSc2nnc(-c3ccc(I)cc3)o2)c(C#N)c1-c1ccc(F)cc1
2.19,10.1,Cc1sc(NC(=O)CSc2n[nH]c(-c3ccc(O)cc3)n2)c(C#N)c1-c1ccc(F)cc1
3.88,–,Cc1sc(NC(=O)CSc2nnc(-c3ccc(Cl)cc3)o2)c(C(N)=O)c1-c1ccc(F)cc1
5.62,–,Cc1sc(NC(=O)CSc2nnc(-c3ccc(O)cc3O)o2)c(C#N)c1-c1ccc(F)cc1

IC50 [1] [µM],IC50 [2] [µM],Structure (SMILES)
8.8,–,Cc1sc(NC(=O)CSc2nnc(-c3ccncc3)o2)c(C#N)c1-c1ccc(F)cc1
3.7,–,Cc1sc(NC(=O)CSc2nnc(-c3ccc(O)cc3)o2)c(C#N)c1-c1ccc(Cl)cc1Cl
35.4,–,Cc1sc(NC(=O)CSc2nnc(-c3cccnc3)o2)c(C#N)c1-c1ccc(F)cc1
8.8,–,Cc1ccccc1Nc1nnc(SCC(=O)Nc2sc(C)c(-c3ccc(F)cc3)c2C#N)s1
0.86,51.9,O=C(CSc1nnc(-c2ccc(Cl)cc2)o1)Nc1cc(-c2ccc(F)cc2)[nH]n1
2.54,44.3,CCOC(=O)c1cnc(SCC(=O)Nc2sc(C)c(C)c2C#N)nc1N
6.07,–,COC(=O)c1c(NC(=O)CSc2nnc(-c3ccc(O)cc3)o2)sc(C)c1-c1ccc(F)cc1
1.88,13.7,Cc1sc(NC(=O)CSc2nnc(-c3ccc(Cl)cc3)o2)c(C#N)c1-c1ccccc1
0.81,21.2,Cc1sc(NC(=O)CSc2nnc(-c3ccc(Cl)cc3)o2)c(C#N)c1-c1ccc(F)cc1
15.4,–,O=C(NCc1ccco1)c1cc2nc(-c3ccc4c(c3)OCO4)cc(C(F)(F)F)n2n1
3.95,26,Cc1ccc(-c2c(C)sc(NC(=O)CSc3nnc(-c4ccc(F)cc4)o3)c2C#N)cc1C
5.19,7.55,Cc1ccc(-c2c(C)sc(NC(=O)CSc3nnc(-c4ccc(Cl)cc4)o3)c2C#N)cc1C
40.1,–,Cc1sc(NC(=O)CSc2nnc(-c3ccc(N)cc3)o2)c(C#N)c1-c1ccc(F)cc1
0.9,16.9,Cc1sc(NC(=O)CSc2nnc(-c3ccc(Br)cc3)o2)c(C#N)c1-c1ccc(F)cc1
2.81,13.6,Cc1sc(NC(=O)CSc2nnc(-c3ccc(Cl)nc3)o2)c(C#N)c1-c1ccc(F)cc1
